Reference: patent publication US20130035515A1, “LIGNOCELLULOSIC HYDROLYSATES AS FEEDSTOCKS FOR ISOBUTANOL FERMENTATION” (priority 2011, published 2013)

Assays:
PNY1504 [1] = test: Fermentation of xylose to isobutanol by PNY1504 in defined medium with xylose isomerase, with or without antimycin A; type: cell-based, Saccharomyces cerevisiae
Procedure: (§1) Strain PNY1504 was pre-cultured in the defined medium SC-GE as described above, except that the medium was buffered to pH 6. Production cultures used the same SC medium, except either glucose or xylose was added to a final concentration of 35 g/L, and penicillin G (Sigma P3032) was added at 25 μg/ml.
Unless it is genetically engineered to do so, S. cerevisiae is unable to ferment xylose, but it is able to ferment xylulose. In order to test whether xylose is available for fermentation to isobutanol, it was converted to xylulose in situ by xylose isomerase (10 g/L; Sigma G4166) essentially as described in Lastick S. M., et al., Applied Microbiology and Biotechnology 30:574-579 (1989), Wang P. Y., et al., Biotechnology Letters 2:273-278 (1980) and Chandrakant P & Bisaria V S, Appl Microbiol Biotechnol 53:301-309 (2000).
(§2) Xylulose can be taken up by yeast and metabolized via the pentose phosphate pathway. […] Souto-Maior A M, et al., J Biotechnol. 143:119-23 (2009). Thus, in order to increase flux towards fermentative products, cultures were treated with the respiratory inhibitor antimycin A (1 μM; Sigma A8674).

PNY1504 [2] = test: Fermentation of glucose to isobutanol by PNY1504 in defined medium with or without antimycin A; type: cell-based, Saccharomyces cerevisiae; conditions: glucose 35 g/L
Procedure: as §1, §2

[3] = antimycin A-treated culture (1 μM)

## antimycin A
PNY1504 [1]; antimycin A 1 μM
  Effect on biomass accumulation: reduce biomass accumulation slightly
  Effect on xylose consumption profile: not significantly affected
PNY1504 [1]; antimycin A 1 μM, at 78 hours
  Isobutanol production: 0.5 g/L
PNY1504 [1]; in the presence of antimycin A
  Isobutanol yield: 0.04 g/g
PNY1504 [2]; antimycin A 1 μM
  Time in which glucose (hexose) was consumed: ≤ 24 h
PNY1504 [2]; [3]
  Isobutanol titer: ~3.3 g/L
  Isobutanol yield: approximately 0.08 g·g^−1
